Results as given in patent publication US20240246941A1, “SUBSTITUTED 4-(3-AMINOPROP-1-YL)AMINOQUINOLINE ANALOGS AS MODULATORS OF MELANOMA-ASSOCIATED ANTIGEN 11 UBIQUITIN LIGASE” (ST. JUDE CHILDREN'S RESEARCH HOSPITAL, INC., priority 2020, published 2024).

Molecular target: MAGE-A11:PCF11 (Homo sapiens (Human), UniProt P43364)
Assay: TR-FRET single point screening at 15 μM
Assay type: binding
Parameters: unit not given here
How it was run: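 Single-point screen at 15 μM (0.25% DMSO) measuring disruption of GST-MAGEA11 (5 nM) binding to FAM-PCF11_4 peptide (200 nM) detected by Tb-anti-GST (5 nM). Buffer 50 mM Tris pH 7.5, 20 mM MgCl2, 0.1 mg/ml BSA, 1 mM DTT; 90 min at ~25 °C; 520/490 nm ratio converted to % inhibition versus controls.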

[1] = single point TR-FRET screening at 15 μM against MAGE-A11:PCF11
[2] = single point TR-FRET screening of quinoline compounds against MAGE-A11:PCF11, 15 μM

Chain of MAGE-A11:PCF11 (P43364 218-429): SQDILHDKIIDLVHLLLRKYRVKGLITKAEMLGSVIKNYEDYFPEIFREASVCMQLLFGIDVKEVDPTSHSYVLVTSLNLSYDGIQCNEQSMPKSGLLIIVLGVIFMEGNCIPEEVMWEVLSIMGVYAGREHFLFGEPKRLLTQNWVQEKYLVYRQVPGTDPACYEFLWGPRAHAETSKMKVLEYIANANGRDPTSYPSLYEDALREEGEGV

SMILES | TR-FRET signal [1] | TR-FRET signal [2]
CCOC(=O)c1cnc2c(CC)cccc2c1NCCN1CCOCC1 [SJ000279714] | −6.103 | –
CCOC(=O)c1cnc2ccc(F)cc2c1NCCCN1CCOCC1 [SJ000279864] | – | −0.3915
CCOC(=O)c1cnc2ccc(C(=O)O)cc2c1N1CCN(CCO)CC1 [SJ000280902] | −0.5958 | –
CCOC(=O)c1cnc2c(C(F)(F)F)cccc2c1NCCN1CCOCC1 [SJ000281260] | 0.8341 | –
CCN(CC)CCCC(C)Nc1ccnc2cc(Cl)ccc12 (centres unmarked) [SJ000285185] | −2.592 | –
CCN(CC)CCCC(C)Nc1c2ccc(Cl)cc2nc2ccc(OC)cc12 (centres unmarked) [SJ000285202] | −265.7 | –
CCN(CCO)CCCC(C)Nc1ccnc2cc(Cl)ccc12 (centres unmarked) [SJ000286026] | 3.702 | –
Clc1ccc2c(NC3CCN(Cc4ccc(Cl)o4)CC3)ccnc2c1 [SJ000311180] | 0.6827 | –
Oc1ccc(Br)cc1CN1CCC(Nc2ccnc3cc(Cl)ccc23)CC1 [SJ000311181] | −1.209 | –
Clc1ccc2c(NCCCN(Cc3ccccc3)CC3CC=CCC3)ccnc2c1 (centres unmarked) [SJ000311182] | – | 16.09
CC(C)CCN(CCCNc1ccnc2cc(Cl)ccc12)Cc1ccccc1 [SJ000311183] | – | 2.673
CC(CCN(CCCNc1ccnc2cc(Cl)ccc12)Cc1ccccc1)c1ccccc1 (centres unmarked) [SJ000311184] | – | 17.35
Cc1ccsc1CNCCCNc1ccnc2cc(Cl)ccc12 [SJ000311189] | – | 6.554
Cc1ccc(CNCCCNc2ccnc3cc(Cl)ccc23)s1 [SJ000311190] | – | 10.83
CCCN(CCCNc1ccnc2cc(Cl)ccc12)Cc1ccc(Br)o1 [SJ000311195] | – | 14.48
CCCN(CCCCNc1ccnc2cc(Cl)ccc12)CCCSC [SJ000311197] | 3.903 | –
CCCN(CCCCNc1ccnc2cc(Cl)ccc12)Cc1ccc[nH]1 [SJ000311198] | −0.9977 | –
CCCN(CCCCNc1ccnc2cc(Cl)ccc12)Cc1sccc1C [SJ000311199] | 6.494 | –
CCCN(CCCCNc1ccnc2cc(Cl)ccc12)Cc1ccoc1 [SJ000311200] | 12.31 | –
CCCN(CCCCNc1ccnc2cc(Cl)ccc12)Cc1cc(F)ccc1OC [SJ000311202] | 5.396 | –
CCCN(CCCCNc1ccnc2cc(Cl)ccc12)Cc1c(F)cccc1OC [SJ000311203] | 6.844 | –

SMILES | TR-FRET signal [1] | TR-FRET signal [2]
CCCN(CCCCNc1ccnc2cc(Cl)ccc12)Cc1c[nH]c2ccccc12 [SJ000311204] | −3.378 | –
CCCN(CCCCNc1ccnc2cc(Cl)ccc12)Cc1ccccc1 [SJ000311205] | 7.684 | –
c1ccc(Oc2ccc3c(NCCCNCc4ccco4)ccnc3c2)cc1 [SJ000311206] | – | 14.59
COc1ccccc1Oc1ccc2c(NCCCNCc3ccco3)ccnc2c1 [SJ000311210] | – | 24.56
COc1cccc(Oc2ccc3c(NCCCNCc4ccco4)ccnc3c2)c1 [SJ000311214] | – | 29.11
COc1ccc(Oc2ccc3c(NCCCNCc4ccco4)ccnc3c2)cc1 [SJ000311218] | – | 36.25
Fc1ccc(Oc2ccc3c(NCCCNCc4ccco4)ccnc3c2)cc1 [SJ000311222] | – | 9.365
Clc1ccc(Oc2ccc3c(NCCCNCc4ccco4)ccnc3c2)cc1 [SJ000311226] | – | 37.65
CN(C)c1cccc(Oc2ccc3c(NCCCNCc4ccco4)ccnc3c2)c1 [SJ000311230] | – | 63.42
CC(C)(C)c1ccc(Oc2ccc3c(NCCCNCc4ccco4)ccnc3c2)cc1 [SJ000311234] | – | 57.54
Fc1ccc(-c2ccc3c(NCCCNCc4ccco4)ccnc3c2)cc1 [SJ000311238] | – | 27.43
CC(C)CCc1ccc2c(NCCCNCc3ccco3)ccnc2c1 [SJ000311246] | – | 13.01
c1coc(CNCCCNc2ccnc3cc(CC4CCCCC4)ccc23)c1 [SJ000311250] | – | 40.66
c1ccc(CCc2ccc3c(NCCCNCc4ccco4)ccnc3c2)cc1 [SJ000311254] | – | 15.95
CC(C)Cc1ccc2c(NCCCNCc3ccco3)ccnc2c1 [SJ000311258] | – | 8.874
c1coc(CNCCCNc2ccnc3cc(C4CCCCC4)ccc23)c1 [SJ000311262] | – | 32.96
CCC(CC)c1ccc2c(NCCCNCc3ccco3)ccnc2c1 [SJ000311266] | – | 24.56
FC(F)(F)c1cc(-c2ccc3c(NCCCNCc4ccco4)ccnc3c2)cc(C(F)(F)F)c1 [SJ000311270] | – | 59.71
c1coc(CNCCCNc2ccnc3cc(-c4cccc5ccccc45)ccc23)c1 [SJ000311274] | – | 41.57
FC(F)(F)c1ccc(-c2ccc3c(NCCCNCc4ccco4)ccnc3c2)cc1 [SJ000311278] | – | 56.21
c1ccc(-c2ccc3c(NCCCNCc4ccco4)ccnc3c2)cc1 [SJ000311282] | – | 28.69

SMILES | TR-FRET signal [1] | TR-FRET signal [2]
CC(C)(C)c1ccc(-c2ccc3c(NCCCNCc4ccco4)ccnc3c2)cc1 [SJ000311286] | – | 73.5
c1coc(CNCCCNc2ccnc3cc(-c4ccc5c(c4)OCO5)ccc23)c1 [SJ000311290] | – | 30.79
COc1ccc(-c2ccc3c(NCCCNCc4ccco4)ccnc3c2)cc1 [SJ000311294] | – | 7.824
FC(F)(F)c1cccc(Cc2ccc3c(NCCCNCc4ccco4)ccnc3c2)c1 [SJ000311298] | – | 27.01
N#Cc1ccc(Cc2ccc3c(NCCCNCc4ccco4)ccnc3c2)cc1 [SJ000311302] | – | 20.43
c1ccc(Cc2ccc3c(NCCCNCc4ccco4)ccnc3c2)cc1 [SJ000311306] | – | 64.54
COc1cc(Cc2ccc3c(NCCCNCc4ccco4)ccnc3c2)cc(OC)c1 [SJ000311310] | – | 23.79
Clc1cccc(Cl)c1Cc1ccc2c(NCCCNCc3ccco3)ccnc2c1 [SJ000311314] | – | 32.4
Cc1cc(C)cc(Cc2ccc3c(NCCCNCc4ccco4)ccnc3c2)c1 [SJ000311318] | – | 39.31
Fc1ccc(Cc2ccc3c(NCCCNCc4ccco4)ccnc3c2)c(Cl)c1 [SJ000311322] | – | 24.77
Cc1ccc(CNCCCNc2ccnc3cc(Cl)ccc23)o1 [SJ000311326] | – | 10.2
Clc1ccc2c(NCCCN(Cc3ccccc3)Cc3ccco3)ccnc2c1 [SJ000312668] | – | 0.5217
Cc1ccc(CN(CCCNc2ccnc3cc(Cl)ccc23)Cc2ccccc2)o1 [SJ000312669] | – | 2.84
Clc1ccc2c(NCCCN(Cc3ccccc3)Cc3ccc(Br)o3)ccnc2c1 [SJ000312671] | – | −1.797
Clc1ccc2c(NCCCN(Cc3ccccc3)Cc3cccs3)ccnc2c1 [SJ000312672] | – | 4.744
Cc1ccc(CN(CCCNc2ccnc3cc(Cl)ccc23)Cc2ccccc2)s1 [SJ000312673] | – | 4.629
Clc1ccc2c(NCCCN(Cc3ccccc3)Cc3ccsc3)ccnc2c1 [SJ000312675] | – | 9.598
Clc1ccc2c(NCCCN(Cc3ccccc3)Cc3nccs3)ccnc2c1 [SJ000312676] | – | −4.148
Clc1ccc2c(NCCCN(Cc3ccccc3)Cc3ccccn3)ccnc2c1 [SJ000312678] | – | −3.851
Clc1ccc2c(NCCCN(Cc3ccccc3)Cc3ccncc3)ccnc2c1 [SJ000312679] | – | −5.573
Clc1ccc2c(NCCCCN(Cc3ccccc3)Cc3ccco3)ccnc2c1 [SJ000312681] | 12.05 | –

SMILES | TR-FRET signal [1] | TR-FRET signal [2]
Cc1ccc(CN(CCCCNc2ccnc3cc(Cl)ccc23)Cc2ccccc2)o1 [SJ000312682] | 2.013 | –
Clc1ccc2c(NCCCCN(Cc3ccccc3)Cc3ccc(Br)o3)ccnc2c1 [SJ000312684] | 14.96 | –
Clc1ccc2c(NCCCCN(Cc3ccccc3)Cc3ccoc3)ccnc2c1 [SJ000312685] | 14.9 | –
Clc1ccc2c(NCCCCN(Cc3ccccc3)Cc3cccs3)ccnc2c1 [SJ000312686] | 25.05 | –
Cc1ccc(CN(CCCCNc2ccnc3cc(Cl)ccc23)Cc2ccccc2)s1 [SJ000312687] | 20.71 | –
Clc1ccc2c(NCCCCN(Cc3ccccc3)Cc3ccc(Br)s3)ccnc2c1 [SJ000312688] | 22.04 | –
Clc1ccc2c(NCCCCN(Cc3ccccc3)Cc3ccsc3)ccnc2c1 [SJ000312689] | 16.3 | –
Clc1ccc2c(NCCCCN(Cc3ccccc3)Cc3ccccn3)ccnc2c1 [SJ000312690] | 9.531 | –
Clc1ccc2c(NCCCCN(Cc3ccccc3)Cc3ccc[nH]3)ccnc2c1 [SJ000312692] | 28.28 | –
COc1cccc(CN(CCCCNc2ccnc3cc(Cl)ccc23)Cc2ccccc2)c1O [SJ000312694] | 7.676 | –
COc1ccc(O)c(CN(CCCCNc2ccnc3cc(Cl)ccc23)Cc2ccccc2)c1 [SJ000312696] | 6.634 | –
Oc1ccccc1CN(CCCCNc1ccnc2cc(Cl)ccc12)Cc1ccccc1 [SJ000312697] | 24.83 | –
COc1ccccc1N1CCN(c2c(S(=O)(=O)c3ccccc3)cnc3ccc(C)cc23)CC1 [SJ000315081] | −19.55 | –
Cc1ccc2ncc(S(=O)(=O)c3ccccc3)c(N3CCN(c4ccccc4F)CC3)c2c1 [SJ000315092] | −33.48 | –
O=S(=O)(c1ccccc1)c1cnc2ccc(F)cc2c1N1CCN(c2ccccc2F)CC1 [SJ000315166] | −99.06 | –
O=S(=O)(c1ccccc1)c1cnc2ccc(Cl)cc2c1N1CCN(c2ccccc2F)CC1 [SJ000315176] | −5.441 | –
COc1ccc2ncc(S(=O)(=O)c3ccccc3)c(N3CCN(c4ccccc4F)CC3)c2c1 [SJ000315263] | −252.5 | –
CCCCN(CCCC)CC(=O)Nc1c2c(nc3ccccc13)N(C)CC2 [SJ000331523] | 2.503 | –
CCN(CC)CC(=O)Nc1c2c(nc3ccccc13)N(C)CC2 [SJ000331537] | 11.78 | –
CN(C)CC(=O)Nc1c2c(nc3ccccc13)N(C)CC2 [SJ000332030] | 17.04 | –
